Measured values reported in ChEMBL document CHEMBL1128864, “Antitumor activities of -, -monogalactosylceramides and four diastereomers of an -galactosylceramide” (1995).

Experiments:
Assay type in all cases: functional
Mus musculus [1] = test: Percent of tumor growth inhibition ratio (TGIR)of the compound administered intravenously at dose 5 mg/kg (on day 1,5,9) in subcutaneously infected BDF1 mice on day 20; conditions: route intravenous
Mus musculus [2] = test: Percent of tumor growth inhibition ratio (TGIR)of the compound administered intravenously at dose 5 mg/kg (on day 10, 14, 18 ) in subcutaneously infected BDF1 mice on day 12; conditions: route intravenous
Mus musculus [3] = test: Percent of tumor growth inhibition ratio (TGIR)of the compound administered intravenously at dose 5 mg/kg (on day 10, 14, 18 ) in subcutaneously infected BDF1 mice on day 16; conditions: route intravenous
Mus musculus [4] = test: Percent of tumor growth inhibition ratio (TGIR)of the compound administered intravenously at dose 5 mg/kg (on day1,5,9) in subcutaneously infected BDF1 mice on day 16; conditions: route intravenous
Mus musculus [5] = test: Percent of tumor growth inhibition ratio (TGIR)of the compound administered intravenously at dose 5 mg/kg (on day10, 14, 18 ) in subcutaneously infected BDF1 mice on day 20; conditions: route intravenous
Mus musculus [6] = test: Percent of tumor growth inhibition ratio (TGIR)of the compound administered intravenously at dose 100 ug/kg(on day 7, 11,15) in subcutaneously infected BDF1 mice on day 16
Mus musculus [7] = test: Percent of tumor growth inhibition ratio (TGIR)of the compound administered intraperitoneally at dose 5 mg/kg (on day 7, 11,15) in subcutaneously infected BDF1 mice on day 16; conditions: route subcutaneous
Mus musculus [8] = test: Percent of tumor growth inhibition ratio (TGIR)of the compound administered intraperitoneally at dose 5 mg/kg (on day 7, 11,15) in subcutaneously infected BDF1 mice on day 9; conditions: route subcutaneous
Mus musculus [9] = test: Percent of tumor growth inhibition ratio (TGIR)of the compound administered intraperitoneally at dose 5 mg/kg (on day 1) in subcutaneously infected BDF1 mice on day 10; conditions: route subcutaneous
Mus musculus [10] = test: Percent of tumor growth inhibition ratio (TGIR)of the compound administered intraperitoneally at dose 100 ug/kg(on day 1) in subcutaneously infected BDF1 mice on day 12
Mus musculus [11] = test: Percent of tumor growth inhibition ratio (TGIR)of the compound administered intraperitoneally at dose 100 ug/kg(on day 1) in subcutaneously infected BDF1 mice on day 20
Mus musculus [12] = test: Percent of tumor growth inhibition ratio (TGIR)of the compound administered intraperitoneally at dose 100 ug/kg(on day 1) in subcutaneously infected BDF1 mice on day 13
Mus musculus [13] = test: Percent of tumor growth inhibition ratio (TGIR)of the compound administered intravenously at dose 5 mg/kg (on day 1) in subcutaneously infected BDF1 mice on day 14; conditions: route intravenous
Mus musculus [14] = test: Percent of tumor growth inhibition ratio (TGIR)of the compound administered intravenously at dose 5 mg/kg (on day 1) in subcutaneously infected BDF1 mice on day 18; conditions: route intravenous
Mus musculus [15] = test: Percent of tumor growth inhibition ratio (TGIR)of the compound administered intravenously at dose 5 mg/kg (on day 1) in subcutaneously infected BDF1 mice on day 20; conditions: route intravenous
Mus musculus [16] = test: Percent of tumor growth inhibition ratio (TGIR)of the compound administered intravenously at dose 5 mg/kg (on day 1) in subcutaneously infected BDF1 mice on day 11; conditions: route intravenous
Mus musculus [17] = test: Percent of tumor growth inhibition ratio (TGIR)of the compound administered intravenously at dose 5 mg/kg (on day 1) in subcutaneously infected BDF1 mice on day 22; conditions: route intravenous
Mus musculus [18] = test: Percent of tumor growth inhibition ratio (TGIR)of the compound administered intravenously at dose 5 mg/kg (on day 1,5,9) in subcutaneously infected BDF1 mice on day 8; conditions: route intravenous
Mus musculus [19] = test: Percent of tumor growth inhibition ratio (TGIR)of the compound administered intravenously at dose 5 mg/kg (on day 1,5,9) in subcutaneously infected BDF1 mice on day 12; conditions: route intravenous

Structure (SMILES): CO[C@@]12[C@H](COC(N)=O)C3=C(C(=O)C(C)=C(N)C3=O)N1C[C@@H]1N[C@@H]12 [MITOMYCIN]
- TGIR (Mus musculus [1]): 83.2%
- TGIR (Mus musculus [2]): 38.8%
- TGIR (Mus musculus [3]): 52.8%
- TGIR (Mus musculus [4]): 86%
- TGIR (Mus musculus [5]): 68.1%
- TGIR (Mus musculus [6]): 80%
- TGIR (Mus musculus [7]): 59.7%
- TGIR (Mus musculus [8]): 35.2%
- TGIR (Mus musculus [9]): 80.1%
- TGIR (Mus musculus [10]): 53.9%
- TGIR (Mus musculus [11]): 48.6%
- TGIR (Mus musculus [12]): 85.1%
- TGIR (Mus musculus [13]): 29.7%
- TGIR (Mus musculus [14]): 51.2%
- TGIR (Mus musculus [15]): 75.1%
- TGIR (Mus musculus [16]): 8.6%
- TGIR (Mus musculus [17]): 60%
- TGIR (Mus musculus [18]): 90%
- TGIR (Mus musculus [19]): 89.7%
